Test results as given in patent US10222368B2 (priority 2012, dated 2019).

Target: T1, mu opiate receptor (MOR) (Rattus norvegicus, UniProt P33535)
T1 construct: from tissue; host or cells: striatal tissue (membrane preparation)
Test: MOR agonist activity using [35S]GTPγS binding assay in striatal membranes
Assay type: biochemical
Conditions: for MOR agonist activity, [35S]GTPγS binding, FLNA-binding compound as agonist at 0.1 μM / MOR agonist activity, [35S]GTPγS binding, 1 μM + BFNA / MOR agonist activity, [35S]GTPγS binding, FLNA-binding compound as agonist at 1 μM: striatal membranes; for MOR agonist activity, [35S]GTPγS binding, FLNA-binding compound as agonist at 0.1 μM / MOR agonist activity, [35S]GTPγS binding, FLNA-binding compound as agonist at 1 μM: Series C-2; for MOR agonist activity, [35S]GTPγS binding, 1 μM + BFNA: 1 μM compound + 1 μM β-FNA (MOR antagonist)
Method: To assess the mu opiate receptor (MOR) agonist activity of positive compounds from the FLNA screening, compounds were tested in a [^35S]GTPγS binding assay using striatal membranes. […] This assay measures a functional consequence of receptor occupancy at one of the earliest receptor-mediated events. The assay permits for traditional pharmacological parameters of potency, efficacy and antagonist affinity, with the advantage that agonist measures are not subjected to amplification or other modulation that may occur when analyzing parameters further downstream of the receptor.
Thus, striatal tissue was homogenized in 10 volumes of ice cold 25 mM HEPES buffer, pH 7.4, which contained 1 mM EGTA, 100 mM sucrose, 50 μg/ml leupeptin, 0.04 mM PMSF, 2 μg/ml soybean trypsin inhibitor and 0.2% 2-mercaptoethanol. The homogenates were centrifuged at 800×g for 5 minutes and the supernatants were centrifuged at 49,000×g for 20 minutes.
The resultant striatal membrane preparation (200 μg) was admixed and maintained (incubated) at 30° C. for 5 minutes in reaction buffer as above that additionally contained 1 mM MgCl2 and 0.5 nM [^35S]GTPγS (0.1 μCi/assay, PerkinElmer Life and Analytical Sciences) in a total volume of 250 μl and continued for 5 minutes in the absence or presence of 0.1-10 μM of an assayed compound of interest. The reaction was terminated by dilution with 750 μl of ice-cold reaction buffer that contained 20 mM MgCl2 and 1 mM EGTA and immediate centrifugation at 16,000×g for 5 minutes.
Normal rabbit serum (1 μl) was added to 1 ml of lysate and incubated at 25° C. for 30 minutes. Nonspecific immune complexes were removed by incubation with 25 μl of protein A/G-conjugated agarose beads at 25° C. for 30 minutes followed by centrifugation at 5,000×g at 4° C. for 5 minutes. The supernatant was divided and separately incubated at 25° C. for 30 minutes with antibodies raised against Gαo proteins (1:1,000 dilutions).
The immunocomplexes so formed were collected by incubation at 25° C. for 30 minutes with 40 μl of agarose-conjugated protein A/G beads and centrifugation at 5,000×g at 4° C. for 5 minutes. The pellet was washed and suspended in buffer containing 50 mM Tris-HCl, pH 8.0, and 1% NP-40. The radioactivity in the suspension was determined by liquid scintillation spectrometry.

[1] = 1 μM compound, relative to DAMGO

T1 sequence (P33535 whole entry): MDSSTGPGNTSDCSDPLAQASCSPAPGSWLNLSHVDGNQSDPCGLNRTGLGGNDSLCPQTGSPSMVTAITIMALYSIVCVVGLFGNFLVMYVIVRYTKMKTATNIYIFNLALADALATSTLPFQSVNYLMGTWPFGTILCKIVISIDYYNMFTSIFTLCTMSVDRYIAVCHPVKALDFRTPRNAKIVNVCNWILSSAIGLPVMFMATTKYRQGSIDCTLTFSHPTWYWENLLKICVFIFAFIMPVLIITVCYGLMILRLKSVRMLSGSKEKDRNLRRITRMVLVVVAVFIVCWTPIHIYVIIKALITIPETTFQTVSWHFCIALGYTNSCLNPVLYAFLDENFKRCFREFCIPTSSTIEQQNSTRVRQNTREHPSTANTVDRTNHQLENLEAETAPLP

SMILES	MOR agonist activity, [35S]GTPγS binding, FLNA-binding compound as agonist at 0.1 μM (0.1 μM compound) [%]	MOR agonist activity, [35S]GTPγS binding, 1 μM + BFNA [%]	MOR agonist activity, [35S]GTPγS binding, FLNA-binding compound as agonist at 1 μM (1 μM compound) [%]	% DAMGO (0.1 μM) (0.1 μM compound, relative to DAMGO) [%]	% DAMGO + BFNA (1 μM compound + BFNA, relative to DAMGO + BFNA) [%]	% DAMGO (1 μM) [1] [%]	% DAMGO (0.1 μM) (Series C-1, 0.1 μM compound relative to DAMGO (0.1 μM)) [%]	% DAMGO (1 μM) (Series C-1, 1 μM compound relative to DAMGO (1 μM)) [%]
O=C1CN(Cc2ccccc2)C2(CCN(C3CCCCC3)CC2)N1 [C0137M(P7)]	180.8	55.8	193.8					
O=[N+]([O-])c1ccc(S(=O)(=O)N2CCC3(CC2)NCCCO3)cc1 [Compound C0045]	149.2	105.3	238.8					
O=S(=O)(c1ccccc1Oc1ccccc1)N1CCC2(CC1)NCCO2 [Compound C0149M-2]	209.8	93.4	406.7					
CN1CCC2(CC1)OCCN2S(=O)(=O)c1ccc(S(C)(=O)=O)cc1 [Compound C0106M]	171.8	117.2	240.7					
CS(=O)(=O)c1ccc(S(=O)(=O)N2CCOC23CCN(CC2CC2)CC3)cc1 [Compound C0126M]	181.8	108.5	265.3					
CC(=O)c1ccc(S(=O)(=O)N2CCC3(CC2)NC(=O)CO3)cc1 [Compound C0087M]	262.8	142.5	329.6	138.9	293.8	132.8		
COc1ccc(S(=O)(=O)N2CCC3(CC2)NCCO3)cc1 [Compound C0026]	207.2	21.2	288.4					
COc1ccc(S(=O)(=O)N2CCSC23CCNCC3)cc1 [S-C0027]	156.2	56.2	286.8					
COc1ccc(S(=O)(=O)N2CCOC23CCN(C(C)C)CC3)cc1 [Compound C0133M]	139.4	72.4	214.8					
CN1CCC2(CC1)NC(=O)CN2Cc1ccccc1 [Compound C0104M]	188.2	143.8	238.9					
CCOC(=O)CN1CCC2(CC1)OCCN2S(=O)(=O)c1ccc(C(C)=O)cc1 [Compound C0099M]	157.2	114.7	195.7			88.0		
CC(=O)c1ccc(S(=O)(=O)N2CC(CN(C)C)OC23CCN(C)CC3)cc1 (stereo not drawn) [Compound C0108M]	205.6	76.9	258.5					
CCCCc1ccc(S(=O)(=O)N2CCC3(CC2)OCCN3S(=O)(=O)c2ccc(CCCC)cc2)cc1 [Compound C0030]							96.0	98.0
CC(=O)c1ccc(S(=O)(=O)N2CC(CN(C)C)OC23CCNCC3)cc1 (stereo not drawn) [Compound C0118M]	166.2	79.2	261.5					
C=CCN1CCC2(CC1)OCCN2S(=O)(=O)c1ccc(OC)cc1 [Compound C0091M]	207.9	80.8	274.4					
